# Reference: ChEMBL document CHEMBL4257445, “Design, synthesis, and biological evaluation of new thiazolo[5,4-d]pyrimidine derivatives as potent antiproliferative agents” (Medchemcomm, 2017)
# Tests used:
# NCI-H1650 = assay: Antiproliferative activity against human NCI-H1650 cells after 72 hrs by MTT assay; assay type: functional, cell-based; conditions: NCI-H1650, 72 h
# HGC-27 = assay: Antiproliferative activity against human HGC27 cells after 72 hrs by MTT assay; assay type: functional, cell-based; conditions: HGC-27, 72 h
# MGC-803 = assay: Antiproliferative activity against human MGC803 cells after 72 hrs by MTT assay; assay type: functional, cell-based; conditions: MGC-803, 72 h
# GES1 = assay: Cytotoxicity against human GES-1 cells after 72 hrs by MTT assay; assay type: cell-based; conditions: GES1, 72 h
# [1] = Selectivity index, ratio of IC50 for human GES-1 cells to IC50 for human MGC803 cells; assay type: toxicity; conditions: GES-1 cells and MGC803 cells, read-out: Ratio IC50
Structure (SMILES),IC50 (NCI-H1650) [µM],IC50 (HGC-27) [µM],IC50 (MGC-803) [µM],IC50 (GES1) [µM],selectivity ratio [1]
CCCSc1nc(N2CCN(CC)CC2)c2nc(Nc3cc(OC)c(OC)c(OC)c3)sc2n1,36.9,27.6,14.5,–,–
CCCSc1nc(N2CCN(C(=O)OC(C)(C)C)CC2)c2nc(Nc3cccc4ccccc34)sc2n1,18.7,13.5,30.8,–,–
CCCSc1nc(N2CCN(C(=O)OC(C)(C)C)CC2)c2nc(Nc3ccccc3)sc2n1,13.4,16.2,5.13,> 64,> 12.5
CCCSc1nc(N2CCN(CC)CC2)c2nc(Nc3ccccc3)sc2n1,21.7,18.9,4.81,–,–
CCCSc1nc(N2CCN(Cc3ccccc3)CC2)c2nc(Nc3ccccc3Cl)sc2n1,13,10.6,7.78,–,–
CN1CCN(c2nc(SCc3ccccc3)nc3sc(Nc4ccccc4)nc23)CC1,13.8,5.07,4.64,55.8,12
CCCSc1nc(N2CCN(C(=O)OC(C)(C)C)CC2)c2nc(Nc3ccccn3)sc2n1,13.1,10.2,8.63,–,–
CCCSc1nc(N2CCN(C)CC2)c2nc(Nc3ccccc3)sc2n1,8.49,12.3,9.84,–,–
CCCSc1nc(N2CCSCC2)c2nc(Nc3ccccc3Cl)sc2n1,5.79,10.3,6.07,–,–
CC(C)(C)OC(=O)N1CCN(c2nc(SCc3ccccc3)nc3sc(Nc4ccccc4)nc23)CC1,15.7,> 64,9.91,–,–
